Results from US11203613B2, “Peptidomimetic proteasome inhibitors” (CORNELL UNIVERSITY, priority 2017, dated 2021).
Where “and” joins values, the source holds several entries; their conditions need not be identical. Identical values can stand only once. Like-named read-outs stand apart in the source and are kept apart here.

Experiments:
Mtb20SOG = Mtb20SOG (Mycobacterium tuberculosis, UniProt P9WHT9); assay: biochemical
[1] = target: Human Constitutive (Hu C-20S) β5 Active Subunit (Homo sapiens, UniProt P28074); assay: IC50 determination, human constitutive 20S proteasome β5c (suc-LLVY-AMC hydrolysis); format: biochemical; conditions: Table 2; several values in a cell are repeat determinations; read-out: Hu c-20S IC50
[2] = Table 2, several values in a cell are repeat determinations

Chain of Mtb20SOG (P9WHT9 58-291): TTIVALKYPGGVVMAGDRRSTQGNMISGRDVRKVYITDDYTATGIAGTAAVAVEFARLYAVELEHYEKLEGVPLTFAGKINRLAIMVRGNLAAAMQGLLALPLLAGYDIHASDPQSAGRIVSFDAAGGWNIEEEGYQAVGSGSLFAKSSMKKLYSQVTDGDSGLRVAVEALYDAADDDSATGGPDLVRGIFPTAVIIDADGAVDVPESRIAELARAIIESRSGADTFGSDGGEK

Compound | IC50 (Mtb20SOG; [2]) | IC50 [1] | IC50 (Mtb20SOG)
Cc1cc(C(=O)N[C@@H](CC(=O)N2CCCC[C@@H]2C)C(=O)N[C@@H](C)c2nc3ccccc3[nH]2)no1 [CF-503148] | 0.906 µM | 17.4 µM | 
CC(C)CCC(=O)N[C@@H](CC(=O)N1CCCC[C@@H]1C)C(=O)N[C@@H](C)c1nc2ccccc2[nH]1 [CF-503149] | 0.136 µM and 0.118 µM | 18.9 µM and 23.5 µM | 
CC(C)CCC(=O)N[C@@H](CC(=O)N1CCC[C@@H]1c1ccccc1)C(=O)N[C@@H](C)c1nc2ccccc2[nH]1 [CF-503150] |  |  | 0.047 µM and 0.045 µM and 0.05 µM and 0.069 µM and 0.059 µM and 0.042 µM
CC(C)C(=O)CN[C@@H](CC(=O)N1CCCC[C@@H]1C)C(=O)N[C@@H](C)c1ncc(-c2ccc(F)cc2F)[nH]1 [CF-503151] |  | 9.9 µM | 11.4 µM
Cc1cc(C(=O)N[C@@H](CC(=O)N2CCC[C@@H]2c2ccccc2)C(=O)N[C@@H](C)c2nc3ccccc3[nH]2)no1 [CF-503152] |  | 11 µM and 9.7 µM | 0.184 µM and 0.127 µM
CC(C)CCC(=O)N[C@@H](CC(=O)N1CCC[C@@H]1c1ccccc1)C(=O)NC(C)c1nc2ccccc2[nH]1 (stereo partly shown) [CF-503153] | 0.029 µM and 0.053 µM | 19.8 µM | 
CC(C)CCS(=O)(=O)N[C@@H](CC(=O)N1CCC[C@@H]1c1ccccc1)C(=O)NC(C)c1nc2ccccc2[nH]1 (stereo partly shown) [CF-503154] | 0.116 µM and 0.202 µM | 11.8 µM | 
CC1CC(C(=O)N[C@@H](CC(=O)N2CCC[C@@H]2c2ccccc2)C(=O)NC(C)c2nc3ccccc3[nH]2)C1 (stereo partly shown) [CF-503155] |  | 8.4 µM | 0.125 µM
C[C@H](NC(=O)[C@H](CC(=O)N1CCC[C@@H]1c1ccccc1)NC(=O)CCC(C)(C)C)c1nc2ccccc2[nH]1 [CF-503156] | 0.088 µM | 16.6 µM | 
CC(C)CCS(=O)(=O)N[C@@H](CC(=O)N1CCCC[C@@H]1C)C(=O)N[C@@H](C)c1ncc(-c2ccc(F)cc2F)[nH]1 [CF-503157] | 1.07 µM and 0.691 µM | 7.5 µM and 9.66 µM | 
C[C@H](NC(=O)[C@H](CC(=O)N1CCCC[C@@H]1C)NC(=O)CCC(C)(C)C)c1ncc(-c2ccc(F)cc2F)[nH]1 [CF-503158] | 0.027 µM and 0.022 µM | 5.3 µM and 8.5 µM | 
CC(C)CCC(=O)N[C@@H](CC(=O)N1CCCC1)C(=O)N[C@@H](C)c1ncc(-c2ccc(F)cc2F)[nH]1 [CF-503159] | 3.47 µM | 10.4 µM | 
C[C@H](NC(=O)[C@H](CC(=O)N1CCCC1)NC(=O)CCC(C)(C)C)c1ncc(-c2ccc(F)cc2F)[nH]1 [CF-503160] | 0.796 µM | 10.3 µM | 
Cc1cc(C(=O)N[C@@H](CC(=O)N2CCCC2)C(=O)N[C@@H](C)c2nc(-c3ccc(F)cc3F)c[nH]2)no1 [CF-503161] |  | 16.7 µM | 3.34 µM
C[C@H](NC(=O)[C@H](CC(=O)N1CCC[C@@H]1C)NC(=O)CCC(C)(C)C)c1ncc(-c2ccc(F)cc2F)[nH]1 [CF-503162] | 0.173 µM and 0.128 µM | 6.3 µM and 5.7 µM | 
C[C@H](NC(=O)[C@H](CC(=O)N1CCC[C@@H]1C)NC(=O)CCC(C)(C)C)c1nc2ccccc2[nH]1 [CF-503163] |  | 16.5 µM | 3.5 µM
CC(C)CCNc1nc(C(=O)N[C@@H](C)C(=O)NCc2ccc(F)cc2F)cc(N2CCCC2)n1 [CF-503175] | 4.6 µM and 5.6 µM | 4.59 µM and 5.46 µM | 
CC(C)CCS(=O)(=O)N[C@@H](CC(=O)N1CCC[C@@H]1c1ccccc1)C(=O)N[C@@H](C)c1nc2ccccc2[nH]1 [CF-503183] | 0.224 µM and 0.242 µM and 0.124 µM | 10.1 µM and 9.7 µM and 10 µM | 
CC(C)CCS(=O)(=O)NC(CC(=O)N1CCCC1c1ccccc1)C(=O)NC(C)c1nc2ccccc2[nH]1 (stereo not shown) [CF-503184] |  | 10.7 µM | 2.6 µM
C[C@H](NC(=O)N(CC(=O)N1CCCC[C@@H]1C)NC(=O)CCC(C)(C)C)c1ncc(-c2ccc(F)cc2F)[nH]1 [CF-503189] | 7.38 µM and 8.04 µM | 7.61 µM and 10.2 µM | 
CC[C@H]1CCCCN1C(=O)C[C@H](NC(=O)CCC(C)(C)C)C(=O)N[C@@H](C)c1nc2ccccc2[nH]1 [CF-503217] |  | 6.85 µM and 8.99 µM | 
CCC1CCCCN1C(=O)CC(NC(=O)CCC(C)C)C(=O)NC1CCCC1c1ncc(-c2ccc(F)cc2F)[nH]1 (stereo not shown) [CF-503292] |  | 4.95 µM and 9.23 µM and 8.19 µM and 8.6 µM | 
C[C@H](NC(=O)[C@H](CC(=O)N1CCCC1)NC(=O)CCc1ccccc1)C(=O)NCc1cccc2cc[nH]c12 [CF-503293] |  | 4.06 µM and 11.6 µM and 19.1 µM and 36.7 µM | 
C[C@H](NC(=O)[C@H](CC(=O)N1CCCC1)NC(=O)CCc1ccccc1)C(=O)NCc1cccc2cn[nH]c12 [CF-503390] |  |  | 0.121 µM and 0.088 µM
CC[C@H]1CCCCN1C(=O)C[C@H](NC(=O)C1CC2(CCC2)C1)C(=O)N[C@@H](C)c1nc2c(F)cccc2[nH]1 [CF-503458] |  |  | 0.007 µM and 0.011 µM
CC(NC(=O)C(CC(=O)N1CCCCC1C)NC(=O)C1CC2(CCC2)C1)c1nc2c(F)cccc2[nH]1 (stereo not shown) [CF-503459] |  |  | 0.013 µM and 0.02 µM
C[C@H](NC(=O)[C@H](CC(=O)N1CCCC[C@@H]1C)NC(=O)[C@H]1C[C@@H]1c1ccccc1)c1nc2c(F)cccc2[nH]1 [drawing 477] | 0.166 µM |  | 
